Assay results published in ChEMBL document CHEMBL1201862, “PubChem BioAssay data set” (2004).
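96-well plates; 48 h exposure; 5 concentrations. Endpoints by linear interpolation between flanking doses. Not reached: highest tested concentration assigned. Here, GI50 denotes the concentration required for 50% inhibition of growth.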 Calls of active or inactive are those of the source. Rule as the data show it: active = GI50 up to about 1.1 µM and inactive = higher.

Legend:
Assay in all cases: NCI-60 cell line screen, 48 h
[1] = test system: NCI-H522
[2] = test system: ACHN
[3] = test system: SK-MEL-5
[4] = test system: SF-295
[5] = test system: OVCAR-8
[6] = test system: BT-549
[7] = test system: DU-145
[8] = test system: MDA-MB-435
[9] = test system: MDA-N
[10] = test system: OVCAR-4
[11] = test system: MCF7
[12] = test system: A549
[13] = test system: U-251
[14] = test system: SK-MEL-28
[15] = test system: TK-10
[16] = test system: HL-60
[17] = test system: SK-OV-3
[18] = test system: KM12
[19] = test system: Malme-3M
[20] = test system: CAKI-1
[21] = test system: OVCAR-5
[22] = test system: SNB-75
[23] = test system: CCRF-CEM
[24] = test system: HCT-15
[25] = test system: RXF 393
[26] = test system: T47D
[27] = test system: M14
[28] = test system: 786-0
[29] = test system: COLO 205
[30] = test system: HT-29
[31] = test system: SR
[32] = test system: NCI/ADR-RES
[33] = test system: HOP-62
[34] = test system: SW-620
[35] = test system: NCI-H226
[36] = test system: SF-268
[37] = test system: NCI-H23
[38] = test system: SN12C
[39] = test system: LOX IMVI
[40] = test system: PC-3
[41] = test system: UACC-257
[42] = test system: UO-31
[43] = test system: UACC-62
[44] = test system: MOLT-4
[45] = test system: RPMI-8226
[46] = test system: SF-539
[47] = test system: SK-MEL-2
[48] = test system: EKVX
[49] = test system: OVCAR-3
[50] = test system: SNB-19
[51] = test system: HCT-116
[52] = test system: MDA-MB-231
[53] = test system: NCI-H460
[54] = test system: IGROV-1
[55] = test system: HCC 2998
[56] = test system: K562
[57] = test system: A498
[58] = test system: Hs-578T

CN1C(C(=O)Nc2ccccn2)=C(O)c2ccccc2S1(=O)=O [PIROXICAM]
GI50 [1]: > 100 µM (inactive)
GI50 [2]: > 100 µM (inactive)
GI50 [3]: > 100 µM (inactive)
GI50 [4]: > 100 µM (inactive)
GI50 [5]: > 100 µM (inactive)
GI50 [6]: 15.3 µM (inactive)
GI50 [7]: > 100 µM (inactive)
GI50 [8]: > 100 µM (inactive)
GI50 [9]: > 100 µM (inactive)
GI50 [10]: > 100 µM (inactive)
GI50 [11]: > 100 µM (inactive)
GI50 [12]: > 100 µM (inactive)
GI50 [13]: > 100 µM (inactive)
GI50 [14]: > 100 µM (inactive)
GI50 [15]: > 100 µM (inactive)
GI50 [16]: > 100 µM (inactive)
GI50 [17]: > 100 µM (inactive)
GI50 [18]: > 100 µM (inactive)
GI50 [19]: > 100 µM (inactive)
GI50 [20]: > 100 µM (inactive)
GI50 [21]: > 100 µM (inactive)
GI50 [22]: > 100 µM (inactive)
GI50 [23]: > 100 µM (inactive)
GI50 [24]: > 100 µM
GI50 [25]: > 100 µM (inactive)
GI50 [26]: > 100 µM (inactive)
GI50 [27]: > 100 µM (inactive)
GI50 [28]: > 100 µM (inactive)
GI50 [29]: > 100 µM (inactive)
GI50 [30]: > 100 µM (inactive)
GI50 [31]: > 100 µM (inactive)
GI50 [32]: > 100 µM (inactive)
GI50 [33]: > 100 µM (inactive)
GI50 [34]: > 100 µM (inactive)
GI50 [35]: > 100 µM (inactive)
GI50 [36]: > 100 µM (inactive)
GI50 [37]: > 100 µM (inactive)
GI50 [38]: > 100 µM (inactive)
GI50 [39]: > 100 µM (inactive)
GI50 [40]: > 100 µM (inactive)
GI50 [41]: > 100 µM (inactive)
GI50 [42]: > 100 µM (inactive)
GI50 [43]: > 100 µM (inactive)
GI50 [44]: > 100 µM (inactive)
GI50 [45]: > 100 µM (inactive)
GI50 [46]: > 100 µM (inactive)
GI50 [47]: > 100 µM (inactive)
GI50 [48]: > 100 µM (inactive)
GI50 [49]: > 100 µM (inactive)
GI50 [50]: > 100 µM (inactive)
GI50 [51]: > 100 µM (inactive)

O=C1N[C@H]2c3c(Cl)sc(Cl)c3[C@@H](O)[C@H]2O1
GI50 [2]: > 100 µM (inactive)
GI50 [3]: > 100 µM (inactive)
GI50 [52]: > 100 µM (inactive)
GI50 [5]: > 100 µM (inactive)
GI50 [6]: > 100 µM (inactive)
GI50 [7]: > 100 µM (inactive)
GI50 [8]: > 100 µM (inactive)
GI50 [9]: > 100 µM (inactive)
GI50 [11]: > 100 µM (inactive)
GI50 [12]: > 100 µM (inactive)
GI50 [13]: > 100 µM (inactive)
GI50 [53]: > 100 µM (inactive)
GI50 [14]: > 100 µM (inactive)
GI50 [15]: > 100 µM (inactive)
GI50 [54]: > 100 µM (inactive)
GI50 [16]: > 100 µM (inactive)
GI50 [17]: > 100 µM (inactive)
GI50 [18]: > 100 µM (inactive)
GI50 [19]: > 100 µM (inactive)
GI50 [20]: > 100 µM (inactive)
GI50 [21]: > 100 µM (inactive)
GI50 [22]: > 100 µM (inactive)
GI50 [23]: > 100 µM (inactive)
GI50 [24]: > 100 µM
GI50 [25]: > 100 µM (inactive)
GI50 [26]: > 100 µM (inactive)
GI50 [27]: > 100 µM (inactive)
GI50 [28]: > 100 µM (inactive)
GI50 [29]: > 100 µM (inactive)
GI50 [30]: > 100 µM (inactive)
GI50 [31]: > 100 µM (inactive)
GI50 [32]: > 100 µM (inactive)
GI50 [33]: > 100 µM (inactive)
GI50 [34]: > 100 µM (inactive)
GI50 [36]: > 100 µM (inactive)
GI50 [55]: > 100 µM (inactive)
GI50 [38]: > 100 µM (inactive)
GI50 [56]: > 100 µM (inactive)
GI50 [40]: > 100 µM (inactive)
GI50 [41]: > 100 µM (inactive)
GI50 [42]: > 100 µM (inactive)
GI50 [43]: > 100 µM (inactive)
GI50 [44]: > 100 µM (inactive)
GI50 [45]: > 100 µM (inactive)
GI50 [57]: > 100 µM (inactive)
GI50 [46]: > 100 µM (inactive)
GI50 [47]: > 100 µM (inactive)
GI50 [48]: > 100 µM (inactive)
GI50 [49]: > 100 µM (inactive)
GI50 [50]: > 100 µM (inactive)
GI50 [51]: > 100 µM (inactive)

O/N=N/c1ccc(Sc2ccc(/N=N/O)cn2)nc1
GI50 [1]: > 100 µM (inactive)
GI50 [2]: > 100 µM (inactive)
GI50 [3]: > 100 µM (inactive)
GI50 [52]: > 100 µM (inactive)
GI50 [4]: > 100 µM (inactive)
GI50 [5]: > 100 µM (inactive)
GI50 [6]: > 100 µM (inactive)
GI50 [7]: > 100 µM (inactive)
GI50 [9]: > 100 µM (inactive)
GI50 [10]: > 100 µM (inactive)
GI50 [11]: > 100 µM (inactive)
GI50 [12]: > 100 µM (inactive)
GI50 [13]: > 100 µM (inactive)
GI50 [53]: > 100 µM (inactive)
GI50 [14]: > 100 µM (inactive)
GI50 [15]: > 100 µM (inactive)
GI50 [54]: > 100 µM (inactive)
GI50 [16]: > 100 µM (inactive)
GI50 [58]: > 100 µM (inactive)
GI50 [17]: > 100 µM (inactive)
GI50 [18]: > 100 µM (inactive)
GI50 [20]: > 100 µM (inactive)
GI50 [21]: > 100 µM (inactive)
GI50 [22]: > 100 µM (inactive)
GI50 [23]: > 100 µM (inactive)
GI50 [24]: > 100 µM
GI50 [26]: > 100 µM (inactive)
GI50 [27]: > 100 µM (inactive)
GI50 [28]: > 100 µM (inactive)
GI50 [29]: > 100 µM (inactive)
GI50 [30]: > 100 µM (inactive)
GI50 [31]: > 100 µM (inactive)
GI50 [32]: > 100 µM (inactive)
GI50 [33]: > 100 µM (inactive)
GI50 [34]: > 100 µM (inactive)
GI50 [35]: > 100 µM (inactive)
GI50 [36]: > 100 µM (inactive)
GI50 [37]: > 100 µM (inactive)
GI50 [55]: > 100 µM (inactive)
GI50 [38]: > 100 µM (inactive)
GI50 [56]: > 100 µM (inactive)
GI50 [40]: > 100 µM (inactive)
GI50 [41]: > 100 µM (inactive)
GI50 [42]: 46.8 µM (inactive)
GI50 [43]: > 100 µM (inactive)
GI50 [44]: > 100 µM (inactive)
GI50 [57]: > 100 µM (inactive)
GI50 [46]: > 100 µM (inactive)
GI50 [48]: > 100 µM (inactive)
GI50 [49]: > 100 µM (inactive)
GI50 [50]: > 100 µM (inactive)
GI50 [51]: > 100 µM (inactive)
